Assay results as given in patent US20250057790A1, “AN INJECTABLE PHARMACEUTICAL COMPOSITION FOR THE TREATMENT OF RESPIRATORY DISEASES IN ANIMALS” (priority 2021, published 2025).
Values after ≈ are worked out from the molar mass of the structure shown.

How the values were obtained:
M. haemolytica = experiment: MIC determination, broth-microdilution (CLSI VET01-A4), field isolates; format: cell-based, Mannheimia haemolytica
Description: (§1) This study determined the in vitro activity Compound (A), the enantiomer of the compound of Formula (I), against different isolates of Actinobacillus (A.) pleuropneumoniae, Bordetella (B.) bronchiseptica, Mannheimia (M.) haemolytica, Pasteurella (P.) multocida, Histophilus (H.) somni and Glaesserella parasuis collected in different European countries.
(§2) The in vitro activity was determined by measuring the minimum inhibitory concentrations (MIC) according to CLSI document VET01-A4 [1] and by calculating MIC50 and MIC90.
(§3) A total of 193 field isolates were tested: 31 of A. pleuropneumoniae, 20 of B. bronchiseptica, 20 of H. somni, 20 H. parasuis, 55 of M. haemolytica and 47 of P. multocida. All bacteria were isolated from the respiratory tract of cattle and swine suffering from respiratory disease. All isolates were epidemiologically unrelated as specified by the different suppliers. E. coli ATCC 25922 (ID 6105) and M. haemolytica ATCC 33396 (ID 6374) were used as reference strains for testing isolates of B. bronchiseptica, M. haemolytica and P. multocida. A. pleuropneumoniae ATCC 27090 (ID 6314) and H. somni ATCC 700025 (ID 6315) were used as reference strains for the testing isolates of A. pleuropneumoniae, H. somni and Glaesserella parasuis. Additionally, H. parasuis (G. parasuis) ATCC 19417 was included as type strain for growth control.
(§4) • Mueller-Hinton agar (Becton Dickinson, Lot 9224866) • Cation-adjusted Mueller-Hinton broth, (CAVHB, Becton Dickinson, Lot 8190586) • Sheep blood, defibrinated (Thermo Scientific, Lot 37091500) • Chocolate agar, GC II with IsoVitalex™ (Becton Dickinson, Lot 0147695) • GC-agar base (Becton Dickinson, Lot 6082608) • Hemoglobin solution (Becton Dickinson, Lot 7142854) • Vitox (Oxoid, Lot 2344976) • Veterinary fastidious Medium (VFM), prepared according to CLSI document VET01-A4 [1], containing: • CAMHB (Becton Dickinson, Lot 8190586) • Yeast extract (Sigma, Lot BCBS5470V) • Lysed horse blood (Thermo Scientific, Lot 35875000) • Supplement C™ (Becton Dickinson, Lot 8030960) • Deionized water
(§5) The MICs for all isolates except for H. somni and Glaesserella parasuis isolates, were determined by using the broth-microdilution method according to CLSI document VET01-A4 [1]. For isolates of H. somni and Glaesserella parasuis the agar-dilution method with chocolate agar GC II, was used. The test concentration range for all compounds was 16 μg/mL to 0.016 μg/mL.
(§6) The MIC results were interpreted according to the CLSI document VET01-S3 [2]. […] All wells containing test item were compared with the growth-control wells. The lowest concentration of compound at which no visible growth (i.e. no turbidity) was detected by the unaided eye was recorded as the MIC. If a “trailing endpoint” occurs, the MIC is defined as the first concentration at which a markedly reduction (about 90%) of the inoculum is observed.
(§7) For isolates tested by the agar-dilution method, results were interpreted according to the CLSI document VET01-S3 [2]. […] The MIC50 and MIC90 represent the concentrations at which a minimum of 50% or 90% of the isolates tested are inhibited.

[1] = Lung tissue study in cattle; format: in vivo; details: after slaughter
Description: The same animals and compositions of Compound A that were used in Example 5 were also used for the Lung tissue study. The lung was freed from the trachea and appending tissues. One half of the lung was homogenized using a food processor (Robot Coupe). Two aliquots of approximately 1 g were placed into 15 mL Falcon tubes. From the liver, kidney and a skeletal muscle (long back muscle) scissor snips from at least two locations were collected to a total mass of ca. 1 g each and placed into 15 mL Falcon tubes. Tissue samples were diluted with blank EDTA cattle plasma 1+3 (w/v) and samples were homogenized using a FastPrep™ System. After centrifugation aliquots of the supernatants were used to determine compound concentrations by a HPLC-MS/MS procedure.

[2] = tested on: microbes that cause respiratory disease in animals; experiment: Activity against the microbes that cause respiratory disease in animals (statement); format: cell-based
H. somni [3] = experiment: MIC determination, broth microdilution, field isolates; format: cell-based, Histophilus somni
Description: as §1, §2, §3, §4
[…] […] The test concentration range for all compounds was 16 μg/mL to 0.016 μg/mL.
as §6
[…] […] The MIC50 and MIC90 represent the concentrations at which a minimum of 50% or 90% of the isolates tested are inhibited.

[4] = tested on: P. multocida (bovine origin); experiment: MIC determination, broth-microdilution (CLSI VET01-A4), field isolates; format: cell-based, Pasteurella multocida
Description: as §1, §2, §3, §4, §5, §6, §7

[5] = tested on: P. multocida (porcine origin); experiment: as above; format: cell-based, Pasteurella multocida
Description: as §1, §2, §3, §4, §5, §6, §7

A. pleuropneumoniae = experiment: as above; format: cell-based, Actinobacillus pleuropneumoniae
Description: as §1, §2, §3, §4, §5
(§8) The MIC results were interpreted according to the CLSI document VET01-S3 [2]. […] All wells containing test item were compared with the growth-control wells. The lowest concentration of compound at which no visible growth (i.e. no turbidity) was detected by the unaided eye was recorded as the MIC. […]

B. bronchiseptica = experiment: as above; format: cell-based, Bordetella bronchiseptica
Description: as §1, §2, §3, §4, §5, §8

Glaesserella parasuis = experiment: MIC determination, agar-dilution (chocolate agar GC II), field isolates; format: cell-based
Description: as §1, §2, §3, §4, §5, §7

H. somni [6] = experiment: MIC determination, agar dilution (chocolate agar GC II), field isolates; format: cell-based, Histophilus somni
Description: as §1, §2, §3, §4, §5, §7

[7] = Mannheimia haemolytica, 55 isolates, broth microdilution
[8] = Pasteurella multocida, 25 isolates of bovine origin, broth microdilution
[9] = of 25 isolates tested, bovine origin
[10] = Pasteurella multocida, 22 isolates of porcine origin, broth microdilution
[11] = of 22 isolates tested, porcine origin
[12] = Actinobacillus pleuropneumoniae, 31 isolates, broth microdilution
[13] = Bordetella bronchiseptica, 20 isolates, broth microdilution
[14] = Glaesserella parasuis, 20 isolates, agar dilution

## COCCNCc1ccc(C#Cc2ccc(C(=O)N[C@H](C(=O)NO)C(C)(C)N)cc2)cc1 [Compound A]
M. haemolytica; [7]
  MIC50: 0.5 µg/mL (≈ 1.14 µM)
  MIC90: 0.5 µg/mL (≈ 1.14 µM)
M. haemolytica; of 55 isolates tested
  Distribution of MICs: number of isolates with MIC 0.063 μg/mL: 2
  Distribution of MICs: number of isolates with MIC 0.125 μg/mL: 6
  Distribution of MICs: number of isolates with MIC 0.25 μg/mL: 15
  Distribution of MICs: number of isolates with MIC 0.5 μg/mL: 27
  Distribution of MICs: number of isolates with MIC 1 μg/mL: 5
[1]
  Detection in tissue samples from lungs: substantial amounts
[2]
  Activity against the microbes that cause respiratory disease in animals: activity against the microbes that cause respiratory disease in animals
H. somni [3]; Histophilus somni, 20 isolates
  MIC50: 0.5 µg/mL (≈ 1.14 µM)
  MIC90: 1 µg/mL (≈ 2.28 µM)
H. somni [3]; of 20 isolates tested
  Distribution of MICs: number of isolates with MIC 0.125 μg/mL: 1
  Distribution of MICs: number of isolates with MIC 0.25 μg/mL: 5
  Distribution of MICs: number of isolates with MIC 0.5 μg/mL: 8
  Distribution of MICs: number of isolates with MIC 1 μg/mL: 5
  Distribution of MICs: number of isolates with MIC 2 μg/mL: 1
[4]; [8]
  MIC50: 0.032 µg/mL (≈ 0.073 µM)
  MIC90: 0.063 µg/mL (≈ 0.144 µM)
[4]; [9]
  Distribution of MICs: number of isolates with MIC 0.032 μg/mL: 12
  Distribution of MICs: number of isolates with MIC 0.063 μg/mL: 6
  Distribution of MICs: number of isolates with MIC 0.125 μg/mL: 1
  Distribution of MICs: number of isolates with MIC ≤0.016 μg/mL: 6
[5]; [10]
  MIC50: 0.032 µg/mL (≈ 0.073 µM)
  MIC90: 0.063 µg/mL (≈ 0.144 µM)
[5]; [11]
  Distribution of MICs: number of isolates with MIC 0.032 μg/mL: 12
  Distribution of MICs: number of isolates with MIC 0.063 μg/mL: 6
  Distribution of MICs: number of isolates with MIC 0.125 μg/mL: 1
  Distribution of MICs: number of isolates with MIC ≤0.016 μg/mL: 3
A. pleuropneumoniae; [12]
  MIC50: 1 µg/mL (≈ 2.28 µM)
  MIC90: 2 µg/mL (≈ 4.56 µM)
A. pleuropneumoniae; of 31 isolates tested
  Distribution of MICs: number of isolates with MIC 1 μg/mL: 22
  Distribution of MICs: number of isolates with MIC 2 μg/mL: 9
B. bronchiseptica; [13]
  MIC50: 8 µg/mL (≈ 18.2 µM)
  MIC90: 16 µg/mL (≈ 36.5 µM)
B. bronchiseptica; of 20 isolates tested
  Distribution of MICs: number of isolates with MIC 8 μg/mL: 10
  Distribution of MICs: number of isolates with MIC 16 μg/mL: 10
Glaesserella parasuis; [14]
  MIC50: 1 µg/mL (≈ 2.28 µM)
  MIC90: 2 µg/mL (≈ 4.56 µM)
Glaesserella parasuis; of 20 isolates tested
  Distribution of MICs: number of isolates with MIC 0.5 μg/mL: 2
  Distribution of MICs: number of isolates with MIC 1 μg/mL: 12
  Distribution of MICs: number of isolates with MIC 2 μg/mL: 5
  Distribution of MICs: number of isolates with MIC 4 μg/mL: 1
H. somni [6]; Histophilus somni, 20 isolates
  MIC50: 1 µg/mL (≈ 2.28 µM)
  MIC90: 2 µg/mL (≈ 4.56 µM)
H. somni [6]; of 20 isolates tested
  Distribution of MICs: number of isolates with MIC 0.25 μg/mL: 1
  Distribution of MICs: number of isolates with MIC 0.5 μg/mL: 1
  Distribution of MICs: number of isolates with MIC 1 μg/mL: 14
  Distribution of MICs: number of isolates with MIC 2 μg/mL: 4
